In patent US20160339036A1, “Compound with Anti-Cancer Properties” (Velgene 3 Limited, priority 2013, published 2016):

Columns and labels:
[1] = system: tumour cell lines of Table 1 (CCRF-CEM, K562, MCF7, PANC1, B16, HT168M1, HCT116, PC3); experiment: Proliferation assay (MTT) on tumour cell lines; format: cell-based, human; mouse (B16); details: 0.6, 2 and 6 μM, evaluated 24, 48 and 72 hours after treatment, One-Way ANOVA Post Hoc Scheffe Test, FIG. 4
Procedure: The first step was to examine the effect of T0504-7238 on the growth of tumour cells of the cell lines listed below in Table I. Our aim was to select the most therapy-sensitive cell lines as a preparation for the in vivo experiments.
Tumour cells were maintained in RPMI 1640 medium supplemented with 10% FBS (Sigma) and 1% penicillin/streptomycin solution (5,000 units penicillin and 5 mg streptomycin/ml) (Sigma) at 37° C. in a 5% CO2 atmosphere and used at confluence or at minimum 10^6 cells/ml density.
Single cell suspensions of different cell lines (Table 1) were put into 96-well microtiter plates for setting up 18-24 parallel samples per experimental group at 4×10^3 cell/well. The appropriate amount of T0504-7238 was suspended in a 3:1 DMSO: Solutol solution, which was then further diluted to the final concentration without the risk of precipitation. […]
Within each group samples were evaluated 24, 48 and 72 hours after treatment. […] After discarding of the culture medium plates were dried at room temperature, formazan crystals dissolved in dimethyl sulfoxide (100 μl/well) and the absorbance (OD) was measured at 570 nm using a microplate reader (Bio-Rad 550).
(§1) The results of our measurements were evaluated using One-Way ANOVA Post Hoc Scheffe Test.

[2] = system: HT168M1 human melanoma; experiment: HT168M1 human melanoma, subcutaneous implantation in CB17/scid mice; format: in vivo, CB17/scid female mice
From the text: (§2) Both the environment of the experimental animals and the execution of the actual experiments followed the up to date legislation and ethical regulations of Hungary. […] The experimental animals were derived from the The Jackson Laboratory (610 Main Street Bar Harbor, Me. 04609, USA). All personnel involved with the in vivo experiments are qualified to perform the described experiments.
2,5×10^5 human melanoma (HT168M1) cells, from the in vitro cell line, were subcutaneously (s.c.) implanted into the dorsal region of adult CB17/scid female mice with congenital immunodeficiency under diethyl ether narcosis. The animals were randomised, divided into two groups (11 treated, 11 control) and labelled with individual ear-markings on the 10th post-implantation day. From that day onwards, the treated group was intraperitoneally (i.p) treated with T0504-7238 (2 mg/kg-3:1 DMSO:Solutol solution) once every second day. The control group was also treated with identical frequency to the treatment group i.p. injecting appropriately diluted 3:1 DMSO:Solutol solution. The animals were weighed weekly and individual changes were recorded using the ear-marking system. The tumour diameter was also individually recorded from the earliest palpable stage using a pair of compasses (caliper). Tumour volume was estimated usin the π/6×a×b^2 formula, where ‘a’ is the longer and ‘b’ is the shorter diameter. The experiment was terminated on the 41st post-implantation day—the animals were sacrificed using Nembutal. The evaluation was based on the weight of the primary tumour.
as §1

[3] = system: PC3 human prostate carcinoma; experiment: PC3 human prostate tumour, implantation into prostate of CB17/scid mice; format: in vivo, CB17/scid male mice; details: 2 mg/kg i.p. once every second day from 13th post-implantation day, evaluated on 31st day
From the text: as §2
The abdominal wall of CB17/scid male mice was opened at the level of the prostate under Nembutal anaesthesia (75 mg/kg). A single cell suspension (2.15×10^5 cell/20 μl) of the PC3 human prostate carcinoma cell line was implanted into the prostate using micro syringe (Hamilton). The abdominal was closed with a single layer of surgical thread (3/0 Vicryl), the skin was closed with outwards turning wound edges using surgical clips (Michel Wound Clips, 7.5 mm). After the wound healing completed, the animals were randomised, divided into two groups (9 treated, 9 control) and labelled with individual ear-markings on the 13th post-implantation day. From that day onwards, the treated group was intraperitoneally (i.p) treated with T0504-7238 (2 mg/kg-3:1 DMSO:Solutol solution) once every second day. […] The animals were weighed weekly and individual changes were recorded using the ear-marking system. […]
as §1

O=C1C(Cl)=C(N2CCOCC2)C(=O)c2ccc(S(=O)(=O)N3CCOCC3)cc21 [T0504-7238]
growth of all tumour cell lines [1]: dose-dependently, significantly decreased the growth | detectable tumor entirely necrotic, share of cases in treated group ([2]; 2 mg/kg i.p. once every second day from 10th post-implantation day, evaluated on 41st day): 20% | weight of the tumor, treated vs control group ([2]; 2 mg/kg i.p. once every second day from 10th post-implantation day, evaluated on 41st day, FIG. 5): significantly lower (p=0.026) | average body weight of treated animals vs controls at the time of evaluation ([2]; 2 mg/kg i.p. once every second day, 41st post-implantation day): this difference was not significant | body weight, treated vs control animals at the time of evaluation ([3]; FIG. 6): no significant difference | average weight of the primary tumour, treated vs control group ([3]; FIG. 7): lower in the treated group
